Experimental data as given in patent EP4722209A1 (Beijing Shenogen Pharma Group, priority 2023, dated 2024).

target: T1, ERα (Homo sapiens, UniProt P03372); assay: ER degradation activity in MCF-7 cells (Western blot, grayscale intensity); type: cell-based; details: 6 hours treatment, 1 nM to 100 nM, concentration required to degrade 50% of the target protein
T1 construct: host or cells: MCF-7
T1 sequence (P03372 1-595): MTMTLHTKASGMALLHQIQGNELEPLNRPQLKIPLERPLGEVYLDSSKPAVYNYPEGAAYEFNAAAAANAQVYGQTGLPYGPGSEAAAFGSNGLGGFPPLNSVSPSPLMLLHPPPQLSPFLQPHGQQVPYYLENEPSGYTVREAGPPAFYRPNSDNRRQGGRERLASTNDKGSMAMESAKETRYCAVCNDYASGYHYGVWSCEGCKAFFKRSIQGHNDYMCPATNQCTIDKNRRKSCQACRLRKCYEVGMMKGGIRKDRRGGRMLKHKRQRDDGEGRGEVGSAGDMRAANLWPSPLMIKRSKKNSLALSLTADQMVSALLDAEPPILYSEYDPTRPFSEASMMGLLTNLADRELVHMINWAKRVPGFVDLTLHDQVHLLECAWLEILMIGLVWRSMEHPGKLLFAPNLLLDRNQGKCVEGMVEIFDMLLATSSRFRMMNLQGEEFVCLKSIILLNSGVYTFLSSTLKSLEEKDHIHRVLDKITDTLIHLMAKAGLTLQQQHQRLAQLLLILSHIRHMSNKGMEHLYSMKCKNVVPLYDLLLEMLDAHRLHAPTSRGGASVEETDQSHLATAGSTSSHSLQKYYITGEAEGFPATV
Protocol: ERα-positive human breast cancer cells MCF-7 (ATCC, HTB-22) were cultured with EMEM medium (ATCC, catalog number 30-2003) containing 10% fetal bovine serum (Thermo Fisher, catalog number 10099141) and 10 µg/mL bovine insulin in 25 cm^2 or 75 cm^2 plastic tissue culture flasks in a 37 °C incubator with 5% CO2. The cells were passaged 2 to 3 times per week. MCF-7 cells were seeded in 6-well plate at 1×10^6 cells/well with 1.8 mL culture medium per well, and cultured in a 37 °C incubator with 95% air and 5% CO2. After 24 hours, the test compounds were added: the compounds were serially diluted 10-fold in DMSO starting from 10 mM (dissolved in DMSO) to prepare gradient stock solutions. A complete culture medium containing 1% DMSO was prepared for further dilution, temporarily named as the "dilution buffer." Working solutions were prepared by diluting each stock solution with 99 times the volume of dilution buffer, that is, by adding 1 µL of the 10 mM stock solution to 99 µL of the dilution buffer and mixing thoroughly.
Finally, […] of the working solution was added to the cell-seeded culture plate. The final concentration of DMSO in the cell culture medium was 0.2%, and the final concentration of the test compounds ranged from 1 nM to 100 nM. The cells were then incubated at 37 °C for 6 hours.
The culture medium was removed, and the cells were washed twice with ice cold PBS. 1 mL of PBS was added to each well, and the cells were collected into EP tubes using a cell scraper, and centrifuged at 4 °C, 4000 rpm for 5 minutes. PBS was aspirated. Total protein was extracted using the Minute™ Mammalian Tissue/Cell Total Protein Extraction Reagent. The protein concentration was measured using the BCA protein assay kit. 30 µg of protein was taken and mixed with 5× SDS-PAGE loading buffer, boiled for 10 minutes, and cooled. The samples were loaded into wells of a precast gel, with constant voltage at 80 V for 30 minutes, and then the voltage was changed to 120 V after the samples entered the resolving gel. The "sandwich" (sponge - filter paper - gel - membrane - filter paper - sponge) was assembled for Bio-Rad's Transblot. Transfer was performed for 1 hour at 0.3 amp at 4 °C. The sample was blocked with 5% fat-free milk for 1 hour, and incubated with Estrogen Receptor alpha Antibody (Thermo Fisher, catalog number MA5-14104) overnight at 4 °C. The membrane was washed with TBST to remove non-specifically bound antibodies, and then incubated with goat anti-mouse IgG-HRP secondary antibody for 1 hour at room temperature, and was visualized using ECL. The protein degradation level was calculated by measuring the grayscale intensity.
The DC50 values (i.e., the concentration of the test compounds required to degrade 50% of the target protein) were calculated and shown in Table 1. A corresponds to a DC50 value below 10 nM, B corresponds to a DC50 value greater than 10 nM and less than 100 nM, and C corresponds to DC50 values greater than 100 nM. Table 1. The DC50 values of exemplary compounds in MCF-7 cells

Structure (SMILES)	DC50 [nM]
CC1(C)CC(=C(c2ccc(N3CCN(C[C@@H]4[C@H]5CN(c6ccc7c(c6)CN(C6CCC(=O)NC6=O)C7=O)C[C@@H]45)CC3)nc2)c2ccc3[nH]nc(F)c3c2)CC(C)(C)O1 (stereo partly drawn) [Compound 52]	> 100
CC1(C)CC(=C(c2ccc(N3CCN(C4CC5(CCN(c6ccc7c(c6)CN(C6CCC(=O)NC6=O)C7=O)C5)C4)CC3)nc2)c2ccc3[nH]nc(F)c3c2)CC(C)(C)O1 (stereo not drawn) [Compound 53]	> 100
CC1(C)CC(=C(c2ccc(N3CCC4(CC3)CC(CN3CCN(c5ccc6c(c5)CN(C5CCC(=O)NC5=O)C6=O)CC3)C4)nc2)c2ccc3[nH]nc(F)c3c2)CC(C)(C)O1 (stereo not drawn) [Compound 54]	> 100
CC1(C)CC(=C(c2ccc3[nH]nc(F)c3c2)c2c(F)cc(N3CCC(CN4CCN(c5ccc6c(c5)CN(C5CCC(=O)NC5=O)C6=O)CC4)CC3)cc2F)CC(C)(C)O1 (stereo not drawn) [Compound 55]	> 100
CC1(C)CC(=C(c2ccc(N3CCC(CNC4CN(c5ccc6c(c5)CN(C5CCC(=O)NC5=O)C6=O)C4)CC3)nc2)c2ccc3[nH]nc(F)c3c2)CC(C)(C)O1 (stereo not drawn) [Compound 57]	< 10
CC1(C)CC(=C(c2ccc(N3CCC(N4CCN(c5ccc6c(c5)CN(C5CCC(=O)NC5=O)C6=O)CC4)CC3)cc2)c2ccc3[nH]ncc3c2)CC(C)(C)O1 (stereo not drawn) [Compound 58]	> 100
CC1(C)CC(=C(c2ccc(N3CCC(F)(CN4CCN(c5ccc6c(c5)CN(C5CCC(=O)NC5=O)C6=O)CC4)CC3)nc2)c2ccc3[nH]nc(F)c3c2)CC(C)(C)O1 (stereo not drawn) [Compound 59]	10 to 100
CC1(C)CC(=C(c2ccc(OC3CCN(C4CCN(c5ccc6c(c5)CN(C5CCC(=O)NC5=O)C6=O)CC4)CC3)nc2)c2ccc3[nH]nc(F)c3c2)CC(C)(C)O1 (stereo not drawn) [Compound 60]	> 100
CC1(C)CC(=C(c2ccc(N3CCC(F)(CNC4CCN(c5ccc6c(c5)CN(C5CCC(=O)NC5=O)C6=O)CC4)CC3)nc2)c2ccc3[nH]nc(F)c3c2)CC(C)(C)O1 (stereo not drawn) [Compound 61]	< 10
CC1(C)CC(=C(c2ccc(N3CCC4(CC3)CC(N3CCN(c5ccc6c(c5)CN(C5CCC(=O)NC5=O)C6=O)CC3)C4)cc2)c2ccc3[nH]nc(F)c3c2)CC(C)(C)O1 (stereo not drawn) [Compound 62]	> 100
CC1(C)CC(=C(c2ccc(N3CCC4(CC3)CC(N3CCC(c5ccc6c(c5)CN(C5CCC(=O)NC5=O)C6=O)CC3)C4)nc2)c2ccc3[nH]nc(F)c3c2)CC(C)(C)O1 (stereo not drawn) [Compound 63]	> 100
CC1(C)CC(=C(c2ccc(N3CCN(C(=O)C4CCN(c5ccc6c(c5)CN(C5CCC(=O)NC5=O)C6=O)CC4)CC3)nc2)c2ccc3[nH]nc(F)c3c2)CC(C)(C)O1 (stereo not drawn) [Compound 65]	> 100
CC1(C)CC(=C(c2ccc(N3CCN(C4CCN(c5ccc6c(c5)CN(C5CCC(=O)NC5=O)C6=O)CC4)CC3)cc2)c2ccc3[nH]ncc3c2)CC(C)(C)O1 (stereo not drawn) [Compound 66]	10 to 100
CC1(C)CC(=C(c2ccc(N3CCN(C4CCN(c5ccc6c(c5)CN(C5CCC(=O)NC5=O)C6=O)CC4)CC3)nc2)c2ccc3[nH]nc(F)c3c2)CC(C)(C)O1 (stereo not drawn) [Compound 67]	> 100
CC1(C)CC(=C(c2ccc(N3CCC(CN4CCC(N5Cc6cc7c(cc6C5)C(=O)N(C5CCC(=O)NC5=O)C7)CC4)CC3)nc2)c2ccc3[nH]nc(F)c3c2)CC(C)(C)O1 (stereo not drawn) [Compound 69]	< 10
CC1(C)CC(=C(c2ccc(N3CCC4(CC3)CN(C(=O)CN3Cc5cc6c(cc5C3)C(=O)N(C3CCC(=O)NC3=O)C6)C4)nc2)c2ccc3[nH]nc(F)c3c2)CC(C)(C)O1 (stereo not drawn) [Compound 70]	10 to 100
CC1(C)CC(=C(c2ccc(N3CC4(CCN(C(=O)CN5Cc6cc7c(cc6C5)C(=O)N(C5CCC(=O)NC5=O)C7)C4)C3)nc2)c2ccc3[nH]nc(F)c3c2)CC(C)(C)O1 (stereo not drawn) [Compound 71]	> 100

Structure (SMILES)	DC50 [nM]
CC1(C)CC(=C(c2ccc(N3CCC4(CN(C(=O)CN5Cc6cc7c(cc6C5)C(=O)N(C5CCC(=O)NC5=O)C7)C4)C3)nc2)c2ccc3[nH]nc(F)c3c2)CC(C)(C)O1 (stereo not drawn) [Compound 72]	> 100
CC1(C)CC(=C(c2ccc(N3CCC4(CC3)CN(C(=O)CN3Cc5cc6c(cc5C3)C(=O)N(C3CCC(=O)NC3=O)C6=O)C4)nc2)c2ccc3[nH]nc(F)c3c2)CC(C)(C)O1 (stereo not drawn) [Compound 74]	> 100
CC1(C)CC(=C(c2ccc(N3CCC(CN4CCN(c5cccc(N6CCC(=O)NC6=O)c5)CC4)CC3)nc2)c2ccc3[nH]nc(F)c3c2)CC(C)(C)O1 [Compound 75]	> 100
CC1(C)CC(=C(c2ccc(N3CCC(CN4CCN(c5ccc(N6CCC(=O)NC6=O)cc5)CC4)CC3)cc2)c2ccc3[nH]nc(F)c3c2)CC(C)(C)O1 [Compound 76]	10 to 100
CC1(C)CC(=C(c2ccc(N3CCC(N4CCN(c5ccc(N6CCC(=O)NC6=O)cc5)CC4)CC3)cc2)c2ccc3[nH]nc(F)c3c2)CC(C)(C)O1 [Compound 78]	> 100
CC1(C)CC(=C(c2ccc(N3CCN(C4CCN(c5ccc(N6CCC(=O)NC6=O)cc5)CC4)CC3)cc2)c2ccc3[nH]nc(F)c3c2)CC(C)(C)O1 [Compound 81]	> 100
CC1(C)CC(=C(c2ccc(N3CCN(C4CN(c5ccc(N6CCC(=O)NC6=O)cc5)C4)CC3)cc2)c2ccc3[nH]nc(F)c3c2)CC(C)(C)O1 [Compound 82]	> 100
CC1(C)CC(=C(c2ccc(N3CCC(CN4CCN(c5ccc(F)c(NC6CCC(=O)NC6=O)c5)CC4)CC3)nc2)c2ccc3[nH]nc(F)c3c2)CC(C)(C)O1 (stereo not drawn) [Compound 83]	< 10
CC1(C)CC(=C(c2ccc(N3CC4(CN(C(=O)CN5CCC(c6ccc(NC7CCC(=O)NC7=O)cc6F)CC5)C4)C3)nc2)c2ccc3[nH]nc(F)c3c2)CC(C)(C)O1 (stereo not drawn) [Compound 84]	> 100
CC1(C)CC(=C(c2ccc(N3CCC(N4CCN(c5ccc(NC6CCC(=O)NC6=O)cc5)CC4)CC3)cc2)c2ccc3[nH]nc(F)c3c2)CC(C)(C)O1 (stereo not drawn) [Compound 86]	> 100
CC1(C)CC(=C(c2ccc(N3CCC(CN4CCN(c5ccc(NC6CCC(=O)NC6=O)cc5)CC4)CC3)cc2)c2ccc3[nH]nc(F)c3c2)CC(C)(C)O1 (stereo not drawn) [Compound 87]	> 100
CC1(C)CC(=C(c2ccc(N3CCN(C4CCN(c5ccc(NC6CCC(=O)NC6=O)cc5)CC4)CC3)cc2)c2ccc3[nH]nc(F)c3c2)CC(C)(C)O1 (stereo not drawn) [Compound 91]	> 100
Cn1nc(N2CCC(=O)NC2=O)c2ccc(C3CCN(CC(=O)N4CCN(c5ccc(C(=C6CC(C)(C)OC(C)(C)C6)c6ccc7[nH]nc(F)c7c6)cn5)CC4)CC3)cc21 [Compound 92]	> 100
Cn1nc(N2CCC(=O)NC2=O)c2ccc(C3CCN(CC(=O)N4CCN(c5ccc(C(=C6CC(C)(C)OC(C)(C)C6)c6ccc7[nH]nc(F)c7c6)cn5)CC4)CC3(F)F)cc21 (stereo not drawn) [Compound 93]	> 100
Cn1nc(N2CCC(=O)NC2=O)c2ccc(C3CCN(CC(=O)N4CC5(C4)CN(c4ccc(C(=C6CC(C)(C)OC(C)(C)C6)c6ccc7[nH]nc(F)c7c6)cn4)C5)CC3(F)F)cc21 (stereo not drawn) [Compound 94]	> 100
Cn1nc(N2CCC(=O)NC2=O)c2ccc(C3CCN(CC(=O)N4CC5(C4)CN(c4ccc(C(=C6CC(C)(C)OC(C)(C)C6)c6ccc7[nH]nc(F)c7c6)cn4)C5)CC3)cc21 [Compound 95]	> 100
